Measured values published in patent publication US8227414B2 ([…].R.L., priority 2005, dated 2012).
Where two headings read alike, the source gives them in different places. Ends that are not written are not given here. Peptide text beside a SMILES is read from it.

Legend:
mouse vas deferens = experiment: Inhibition of the twitch induced by electrical stimulation of mouse vas deferens; type: cell-based; settings: for Inhibition of the twitch induced by electric stimulation, Antagonist pA2: against N/OFQ; for Functional behaviour in mouse vas deferens: compared with N/OFQ maximal effect
Experimental: The compounds were tested in vitro on Hamster oocytes membranes expressing the human recombinant NOP receptor (CHOhNoP) (receptor binding experiments and GTP?S binding stimulation experiments) and on the mouse vas deferens after electrical stimulation.

mice [1] = experiment: Food intake in fed mice; type: in vivo, mouse
Excerpt: 2) measurement of food intake in fed animals, as described by Rizzi et al. (National Congress of the Italian Society of Neuroscience and joint Italian-Swedish Neuroscience Meetings, Ischia (Napoli) 1-4 Oct. 2005);

[2] = Metabolic stability in mouse plasma; type: in vitro ADME; settings: for half-life at 6 μg/μl: male, Swiss, mouse, plasma, pH 7.4, mouse plasma; for Plasma T½ compared to N/OFQ: mouse plasma
Experimental: (§1) Plasma and brain tissue samples were obtained from male Swiss mice (Morini, Reggio Emilia, Italy, 25-30 g). The animal, sacrificed by ether anesthesia, was perfused with physiological heparin solution injected through a needle placed in the left ventricle. Blood was then withdrawn and was centrifuged at 14000×g for 2 minutes at room temperature. After separation from the pellet, the plasma was aliquoted and stocked at −80° C. After blood withdrawal, the animal was perfused further with a physiological solution for 2 minutes before brain removal. The brain tissue was homogenized in 5 vol. (w/v) of Tris/HCl (50 mM, pH 7.4, 0° C.) with a ultra-Turrax (Janke Kunkel, Staufen, FRG) 3 times for 15 seconds each. The supernatant obtained by centrifugation (3000×g for 15 min at 4° C.) was decanted and then stocked at −80° C.
(§2) The protein content of the preparations, determined by the Bradford method, as described in Anal. Biochem., 72, 248-254, 1976, was approximately 8 μg/μl for the brain homogenate and 17 μg/μl for the plasma
(§3) An aliquot of 100 μl solution of each peptide (3 mg/500 μl Tris) was incubated (at a final concentration of […]) with brain homogenate or plasma (450 μl) in a total volume of 1 ml, containing Tris/HCl 50 mM pH 7.4 buffer. Incubation of the aliquots was carried out at 37° C. for various periods up to 240 min. At different incubation times, an aliquot of the solution (100 μl) was removed and the degradation was blocked by addition of 4.5% TFA solution (200 μl). After centrifugation (3000 rpm for 15 minutes) an aliquot (100 μl) of supernatant was injected into RP-HPLC. HPLC analysis was performed in a Kromasil 100-5C18 column (4.6×250 mm) using a Beckman System Gold chromatography system equipped with a variable wave length UV detector.
(§4) The experimental conditions for elution included a gradient analysis with water (solvent A) and acetonitrile (solvent B), both containing 0.1% TFA, at a flow rate of 0.7 ml/min. The following protocol was used for gradient analysis, selected on the basis of the physico-chemical characteristics of the analyte: linear gradient from 5% to 40% B in 20 minutes; linear gradient from 40% to 60% B in 5 minutes; linear gradient from 60% to 5% B in 5 minutes. The eluate was monitored at 220 nm. The half life (T1/2) was obtained by linear regression with the least square method, diagramming the peak areas of each derivative as a function of the incubation times, using at least five points for each analysis.

mice [3] = experiment: Spontaneous locomotor activity in mice; type: in vivo, mouse
Experimental: Control animals received one i.c.v. injection of saline (2 μl/mouse). Each point represents the mean±s.e.m. of at least 4 experiments.
3) assay for measurement of spontaneous locomotor activity, as described by Rizzi et al., (Naunyn Schmiedebergs Arch Pharmacol 363, 161-165, 2001.

[4] = Metabolic stability in mouse brain homogenate; type: in vitro ADME; settings: male, Swiss, pH 7.4, mouse brain homogenate, 37° C., mean±standard deviation, read-out: T½ Brain
Experimental: as §1, §2, §3, §4

[5] = target: T1, human recombinant NOP receptor (Homo sapiens, UniProt P41146); experiment: Stimulation of GTP?S binding on CHOhNOP membranes; type: biochemical; settings: for Functional behaviour in GTP?S binding: compared with N/OFQ maximal effect
T1 construct: expressed in transfected cells; host or cells: CHO cells (CHOhNOP), membranes

[6] = target: T2, human recombinant opioid receptor delta (DOP) (Homo sapiens, UniProt P41143); experiment: Receptor binding on CHO membranes, [3H]-Diprenorphine
T2 construct: expressed in transfected cells; host or cells: CHO cells, membranes

[7] = target: T3, human recombinant opioid receptor mu (MOP) (Homo sapiens, UniProt P35372); experiment: as above
T3 construct: expressed in transfected cells; host or cells: CHO cells, membranes

[8] = target: T1, human recombinant NOP receptor; experiment: Receptor binding, displacement of tritiated N/OFQ on CHOhNOP membranes; settings: Receptor binding PKi, Table 1; membrane of CHOhNOP cells; tritiated N/OFQ
[9] = system: vas deferens of knockout mice for the NOP receptor (NOP−/−); experiment: Electrically stimulated vas deferens from NOP receptor knockout mice; type: cell-based, mouse; settings: Table 2
[10] = target: T4, human recombinant NOP receptors expressed in HEK293 cells (Homo sapiens, UniProt P41146); settings: Okada et al. 2000; cited from earlier work
T4 construct: host or cells: HEK293 cells

[11] = Table 2, wild type (NOP+/+) mice
[12] = 37° C., mean±standard deviation, read-out: T½ Plasma

T1 sequence (P41146 whole entry): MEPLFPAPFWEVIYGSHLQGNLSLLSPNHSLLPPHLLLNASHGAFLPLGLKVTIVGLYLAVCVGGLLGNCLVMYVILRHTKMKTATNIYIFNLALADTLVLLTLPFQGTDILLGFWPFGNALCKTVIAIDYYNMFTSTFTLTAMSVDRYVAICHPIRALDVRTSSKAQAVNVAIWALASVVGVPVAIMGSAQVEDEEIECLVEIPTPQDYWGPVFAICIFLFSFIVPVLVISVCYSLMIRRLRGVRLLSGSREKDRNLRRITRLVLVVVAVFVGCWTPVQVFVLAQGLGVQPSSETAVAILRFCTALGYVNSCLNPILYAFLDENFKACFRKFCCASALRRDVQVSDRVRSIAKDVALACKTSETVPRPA
T4 sequence (P41146 whole entry): as above
T2 sequence (P41143 whole entry): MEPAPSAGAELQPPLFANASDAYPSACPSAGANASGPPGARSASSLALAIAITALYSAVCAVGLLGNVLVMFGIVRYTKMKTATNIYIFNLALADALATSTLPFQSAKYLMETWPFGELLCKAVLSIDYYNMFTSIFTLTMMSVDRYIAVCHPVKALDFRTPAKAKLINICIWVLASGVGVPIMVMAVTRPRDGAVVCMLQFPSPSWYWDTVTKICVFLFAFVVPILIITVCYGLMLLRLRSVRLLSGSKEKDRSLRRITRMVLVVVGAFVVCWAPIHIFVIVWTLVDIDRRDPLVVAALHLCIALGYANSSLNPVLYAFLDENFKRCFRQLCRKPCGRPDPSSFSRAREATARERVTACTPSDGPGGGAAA
T3 sequence (P35372 whole entry): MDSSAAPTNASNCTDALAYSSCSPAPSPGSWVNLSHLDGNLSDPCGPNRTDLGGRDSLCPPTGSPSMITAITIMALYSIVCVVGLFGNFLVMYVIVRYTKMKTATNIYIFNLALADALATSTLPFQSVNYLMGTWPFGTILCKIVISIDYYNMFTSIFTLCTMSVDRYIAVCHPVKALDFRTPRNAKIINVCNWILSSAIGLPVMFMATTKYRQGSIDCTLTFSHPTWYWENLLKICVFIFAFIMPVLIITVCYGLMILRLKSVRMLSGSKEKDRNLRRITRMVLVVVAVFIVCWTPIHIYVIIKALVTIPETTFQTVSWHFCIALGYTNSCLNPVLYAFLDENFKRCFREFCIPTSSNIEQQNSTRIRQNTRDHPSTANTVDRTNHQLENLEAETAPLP

CC(C)C[C@H](NC(=O)[C@H](CCCCN)NC(=O)[C@H](CCCNC(=N)N)NC(=O)[C@H](C)NC(=O)[C@H](CO)NC(=O)[C@H](CCCCN)NC(=O)[C@H](CCCNC(=N)N)NC(=O)[C@H](C)NC(=O)CNC(=O)[C@@H](NC(=O)[C@H](Cc1ccccc1)NC(=O)CNC(=O)CNC(=O)[C@@H](N)Cc1ccccc1)[C@@H](C)O)C(=O)N[C@@H](C)C(=O)N[C@@H](CC(N)=O)C(=O)N[C@@H](CCC(N)=O)C(=O)O [N/OFQ, reference compound]
Inhibition of the twitch induced by electric stimulation, Agonist Emax (mouse vas deferens; Table 1): −84 ± 3%
Inhibition of the twitch induced by electric stimulation, Agonist pEC50 (mouse vas deferens; Table 1): 7.39
Emax NOP+/+ (mouse vas deferens; [11]): 84 ± 4%
Hyperphagic effects in NOP−/− mice (mice [1]; NOP−/− mice): absent
Effect on food intake (mice [1]; fed mice, equi-effective doses): significant increase
half-life at 6 μg/μl [2, 12]: 1.07 ± 0.0167 h
half-life at 6 μg/μl ([2]; read-out: Half life in the plasma (converted)): ~1 h
Time after i.c.v. injection at which locomotor effect ended (mice [3]; 10 nmol i.c.v.): 60 min
Effect on spontaneous locomotor activity (mice [3]; i.c.v., N/OFQ 10 nmol, UFP-112 0.1 nmol): inhibited the locomotor activity
half-life at 6 μg/μl [4]: ~0.05 h

C[C@H](NC(=O)[C@H](CO)NC(=O)[C@H](CCCCN)NC(=O)[C@H](CCCNC(=N)N)NC(=O)C(C)(C)NC(=O)CNC(=O)[C@@H](NC(=O)[C@H](Cc1ccccc1)NC(=O)CNC(=O)CNC(=O)CNCc1ccccc1)[C@@H](C)O)C(=O)N[C@@H](CCCNC(=N)N)C(=O)N[C@@H](CCCCN)C(=O)N[C@@H](CCCNC(=N)N)C(=O)N[C@@H](CCCCN)C(=O)N[C@@H](CC(N)=O)C(=O)N[C@@H](CCC(N)=O)C(N)=O [UFP-111, [Nphe^1,Aib^7,Arg^14,Lys^15]N/OFQ-NH2]
Kb [5]: 2.09 nM
Stimulation upon binding GTP?S, Agonist pEC50 ([5]; Table 1, membrane of CHOhNOP cells): Inactive
Functional behaviour in GTP?S binding [5]: competitive antagonist
Ki [6]: > 10000 nM
Inhibition of the twitch induced by electric stimulation, Agonist pEC50 (mouse vas deferens; Table 1): Inactive
Inhibition of the twitch induced by electric stimulation, Antagonist pA2 (mouse vas deferens; Table 1): 7.46
Functional behaviour in mouse vas deferens (mouse vas deferens): competitive antagonist
Ki [7]: > 10000 nM
half-life at 6 μg/μl [2, 12]: 2.28 ± 0.0667 h
Plasma T½ compared to N/OFQ [2]: about twice as long
half-life at 6 μg/μl [4]: 0.183 ± 0.0317 h

C[C@H](NC(=O)[C@H](CO)NC(=O)[C@H](CCCCN)NC(=O)[C@H](CCCNC(=N)N)NC(=O)C(C)(C)NC(=O)CNC(=O)[C@@H](NC(=O)[C@H](Cc1ccc(F)cc1)NC(=O)CNC(=O)CNC[C@@H](N)Cc1ccccc1)[C@@H](C)O)C(=O)N[C@@H](CCCNC(=N)N)C(=O)N[C@@H](CCCCN)C(=O)N[C@@H](CCCNC(=N)N)C(=O)N[C@@H](CCCCN)C(=O)N[C@@H](CC(N)=O)C(=O)N[C@@H](CCC(N)=O)C(N)=O [UFP-113, [Phe^1?(CH2—NH)Gly^2,(pF)Phe^4,Aib^7,Arg^14,Lys^15]N/OFQ-NH2] (HELM PEPTIDE1{[N[C@H](CNCC(=O)[*:2])Cc1ccccc1].G.[O=C([C@H](Cc1ccc(F)cc1)N[*:1])[*:2]].T.G.[Aib].R.K.S.A.R.K.R.K.N.Q.[am]}$$$$V2.0)
EC50 [5]: 0.191 nM
Functional behaviour in GTP?S binding [5]: partial NOP receptor agonist
Emax ([5]; read-out: Stimulation upon binding GTP?S, Agonist Emax): 79 ± 3%
Inhibition of the twitch induced by electric stimulation, Agonist pEC50 (mouse vas deferens; Table 1): Variable agonist effects
Inhibition of the twitch induced by electric stimulation, Antagonist pA2 (mouse vas deferens; Table 1): 9.28
Functional behaviour in mouse vas deferens (mouse vas deferens): partial NOP receptor agonist
half-life at 6 μg/μl [2, 12]: 1.83 ± 0.167 h
Plasma T½ compared to N/OFQ [2]: about twice as long
Ki [8]: 0.055 nM
half-life at 6 μg/μl [4]: 0.205 ± 0.0133 h

DPDPE [[D-Pen^2,D-Pen^5]-Enkephalin, reference compound]
Emax NOP−/− [9]: 91 ± 5%
pEC50 NOP−/− [9]: 8.20
Emax NOP+/+ (mouse vas deferens; [11]): 93 ± 3%
pEC50 NOP+/+ (mouse vas deferens; [11]): 8.40

N/OFQ-NH2 (FGGFTGARKSARKLANQ-NH2; UniProt Q13519 130-146, looked up) [reference compound]
Emax (mouse vas deferens): 93 ± 2%

[(aMe)D/L-Leu^7]N/OFQ-NH2 [[(aMe)D/L-Leu^7]N/OFQ-NH2 (diastereomer 1)]
Emax (mouse vas deferens; Table 4): 84 ± 1%
pEC50 (CL 95%) (mouse vas deferens; Table 4): 7.33 (7.04-7.62)

[(aMe)D/L-Leu^7]N/OFQ-NH2 [[(aMe)D/L-Leu^7]N/OFQ-NH2 (diastereomer 2)]
Emax (mouse vas deferens; Table 4): 95 ± 2%
pEC50 (CL 95%) (mouse vas deferens; Table 4): 7.12 (7.02-7.22)

[(aMe)D/L-Leu^11]N/OFQ-NH2
Emax (mouse vas deferens; Table 4): 91 ± 4%
pEC50 (CL 95%) (mouse vas deferens; Table 4): 7.87 (7.67-8.07)

[(aMe)D/L-Val^7]N/OFQ-NH2 [[(aMe)D/L-Val^7]N/OFQ-NH2 (diastereomer 1)]
Emax (mouse vas deferens; Table 4): 88 ± 1%
pEC50 (CL 95%) (mouse vas deferens; Table 4): 7.26 (7.00-7.52)

[(aMe)D/L-Val^7]N/OFQ-NH2 [[(aMe)D/L-Val^7]N/OFQ-NH2 (diastereomer 2)]
Emax (mouse vas deferens; Table 4): 95 ± 1%
pEC50 (CL 95%) (mouse vas deferens; Table 4): 7.56 (7.34-7.78)

[(aMe)D/L-Val^11]N/OFQ-NH2 [[(aMe)D/L-Val^11]N/OFQ-NH2 (diastereomer 1)]
Emax (mouse vas deferens; Table 4): 93 ± 2%
pEC50 (CL 95%) (mouse vas deferens; Table 4): 7.71 (7.37-8.05)

[(aMe)D/L-Val^11]N/OFQ-NH2 [[(aMe)D/L-Val^11]N/OFQ-NH2 (diastereomer 2)]
Emax (mouse vas deferens; Table 4): 86 ± 4%
pEC50 (CL 95%) (mouse vas deferens; Table 4): 7.83 (7.67-7.99)

[Ac3c^7]N/OFQ-NH2
Emax (mouse vas deferens; Table 4): 98 ± 1%
pEC50 (CL 95%) (mouse vas deferens; Table 4): 7.08 (6.82-7.34)

[Ac3c^11]N/OFQ-NH2
Emax (mouse vas deferens; Table 4): 91 ± 4%
pEC50 (CL 95%) (mouse vas deferens; Table 4): 7.78 (7.62-7.94)

[Ac5c^7]N/OFQ-NH2
Emax (mouse vas deferens; Table 4): 98 ± 1%
pEC50 (CL 95%) (mouse vas deferens; Table 4): 7.60 (7.40-7.80)

[Ac5c^11]N/OFQ-NH2
Emax (mouse vas deferens; Table 4): 89 ± 4%
pEC50 (CL 95%) (mouse vas deferens; Table 4): 8.08 (7.93-8.23)

[Ac6c^7]N/OFQ-NH2
Emax (mouse vas deferens; Table 4): 87 ± 1%
pEC50 (CL 95%) (mouse vas deferens; Table 4): 7.20 (6.86-7.54)

[Ac6c^11]N/OFQ-NH2
Emax (mouse vas deferens; Table 4): 89 ± 4%
pEC50 (CL 95%) (mouse vas deferens; Table 4): 7.79 (7.53-8.05)

[Arg^14,Lys^15]N/OFQ
Potency relative to N/OFQ [10]: 17 fold

[Deg^7]N/OFQ-NH2
Emax (mouse vas deferens; Table 4): 89 ± 2%
pEC50 (CL 95%) (mouse vas deferens; Table 4): 7.91 (7.53-8.27)

[Deg^11]N/OFQ-NH2
Emax (mouse vas deferens; Table 4): 87 ± 4%
pEC50 (CL 95%) (mouse vas deferens; Table 4): 7.75 (7.43-7.89)

[Dpg^7]N/OFQ-NH2
Emax (mouse vas deferens; Table 4): 91 ± 4%
pEC50 (CL 95%) (mouse vas deferens; Table 4): 7.90 (7.71-8.11)

[Dpg^11]N/OFQ-NH2
Emax (mouse vas deferens; Table 4): 86 ± 3%
pEC50 (CL 95%) (mouse vas deferens; Table 4): 7.53 (7.17-8.04)

[Iva^7]N/OFQ-NH2 [[Iva^7]N/OFQ-NH2 (diastereomer 1)]
Emax (mouse vas deferens; Table 4): 91 ± 4%
pEC50 (CL 95%) (mouse vas deferens; Table 4): 7.83 (7.74-7.92)

[Iva^7]N/OFQ-NH2 [[Iva^7]N/OFQ-NH2 (diastereomer 2)]
Emax (mouse vas deferens; Table 4): 88 ± 3%
pEC50 (CL 95%) (mouse vas deferens; Table 4): 7.62 (7.32-7.92)

[Nphe1,Arg14,Lys15]N/OFQ-NH2 (XGGFTGARKSARKRKNQ; Nphe1, C-terminal amide; Synthetized. Featured in patent as UFP-101, ref. Calòet al. Br J Pharmacol 136, 303-311, 2002) [reference compound]
pA2 in competition with the endogenous agonist N/OFQ (mouse vas deferens; agonist N/OFQ): 6.91
pA2 in competition with UFP-112 (mouse vas deferens; agonist UFP-112): 6.81
